This is an account of results in patent publication US6514911B1, “Substituted oxadiazines useful as pesticides” (Uniroyal Chemical Company, Inc., priority 2002, dated 2003).

Assay type in all cases: in vivo
For experiment [1], the system named is green foxtail (Setaria virdis (L.) Beauv.) (GF). Nature of the experiment: Preemergence herbicide test, soil drench, green foxtail. The conditions noted are these: 10 lbs/A (11.2 kg/ha) soil drench, two weeks after treatment, vs untreated checks; for pest or weed control at 11208.5 g/ha: Setaria, 336 h, read-out: Percent Weed Control GF. The procedure: To illustrate the effectiveness of the previously described substituted oxadiazines of this invention as preemergence herbicides, 300 mg of the chemical was dissolved in a composition comprising 10 mL acetone to which 30 mg of tile emulsifying agent, ethoxylated sorbitan monolaurate, was added. The solution was diluted to 100 mL with distilled water. Ten milliliters of this 3000 ppm solution was diluted to 250 ppm with distilled water. The chemical was applied at the rate of 10 pounds/acre (11.2 kg/ha) by drenchings 46 mL of the 250 ppm solution on the surface of soil in 41⁄2 inch (11.25 cm) plastic pots wherein seeds of the following weeds had been planted: green foxtail (Setaria […].) Beauv.) (GF). The percent control of the weeds compared to untreated checks was determined two weeks after treatment. TABLE 1 summarizes the results achieved with compounds formulated as indicated above, and the data clearly indicate the good to excellent herbicidal efficacy of compositions of this invention.

Experiment [2] deals with barnyardgrass (Echinochloa crus-galli (L.) Beauv.) (BG). Nature of the experiment: Preemergence herbicide test, soil drench, barnyardgrass. As to conditions: 10 lbs/A (11.2 kg/ha) soil drench, two weeks after treatment, vs untreated checks; for pest or weed control at 11208.5 g/ha: Echinochloa crus-galli, 336 h, read-out: Percent Weed Control BG. The procedure:
(§1) To illustrate the effectiveness of the previously described substituted oxadiazines of this invention as preemergence herbicides, 300 mg of the chemical was dissolved in a composition comprising 10 mL acetone to which 30 mg of tile emulsifying agent, ethoxylated sorbitan monolaurate, was added. The solution was diluted to 100 mL with distilled water. Ten milliliters of this 3000 ppm solution was diluted to 250 ppm with distilled water. The chemical was applied at the rate of 10 pounds/acre (11.2 kg/ha) by drenchings 46 mL of the 250 ppm solution on the surface of soil in 4½ inch (11.25 cm) plastic pots wherein seeds of the following weeds had been planted: barnyardgrass (Echinochloa crus-galli (L.) Beauv.) (BG), and The percent control of the weeds compared to untreated checks was determined two weeks after treatment. TABLE 1 summarizes the results achieved with compounds formulated as indicated above, and the data clearly indicate the good to excellent herbicidal efficacy of compositions of this invention.

Experiment [3] relates to tall morningglory (Ipomoea purpurea (L.) Roth) (TM). Nature of the experiment: Preemergence herbicide test, soil drench, tall morningglory. As to conditions: 10 lbs/A (11.2 kg/ha) soil drench, two weeks after treatment, vs untreated checks; for pest or weed control at 11208.5 g/ha: Ipomoea, 336 h, read-out: Percent Weed Control TM. The procedure: as §1, with “tall morningglory (Ipomoea purpurea” for “barnyardgrass (Echinochloa crus-galli”, “Roth) (TM),” for “Beauv.) (BG), and”

Experiment [4] concerns velvetleaf (Abutilon theophrasti Medik.) (VL). Description: Preemergence herbicide test, soil drench, velvetleaf. As to conditions: 10 lbs/A (11.2 kg/ha) soil drench, two weeks after treatment, vs untreated checks; for pest or weed control at 11208.5 g/ha: Abutilon theophrasti, 336 h, read-out: Percent Weed Control VL. The procedure: as §1, with “velvetleaf (Abutilon theophrasti Medik.) (VL),” for “barnyardgrass (Echinochloa crus-galli (L.) Beauv.) (BG), and”

For experiment [5], the system named is jimsonweed (Datura stramonium L.) (JW). Description: Preemergence herbicide test, soil drench, jimsonweed. As to conditions: 10 lbs/A (11.2 kg/ha) soil drench, two weeks after treatment, vs untreated checks. The procedure:
as §1, with “jimsonweed (Datura stramonium L.) (JW),” for “barnyardgrass (Echinochloa crus-galli (L.) Beauv.) (BG), and”

The subject of experiment [6] is switchgrass (Panicum virgahim L.) (SG). Nature of the experiment: Preemergence herbicide test, soil drench, switchgrass. The conditions noted are these: 10 lbs/A (11.2 kg/ha) soil drench, two weeks after treatment, vs untreated checks; for pest or weed control at 11208.5 g/ha: Panicum, 336 h, read-out: Percent Weed Control SG. The procedure: To illustrate the effectiveness of the previously described substituted oxadiazines of this invention as preemergence herbicides, 300 mg of the chemical was dissolved in a composition comprising 10 mL acetone to which 30 mg of tile emulsifying agent, ethoxylated sorbitan monolaurate, was added. The solution was diluted to 100 mL with distilled water. Ten milliliters of this 3000 ppm solution was diluted to 250 ppm with distilled water. The chemical was applied at the rate of 10 pounds/acre (11.2 kg/ha) by drenchings 46 mL of the 250 ppm solution on the surface of soil in 4½ inch (11.25 cm) plastic pots wherein seeds of the following weeds had been planted:
switchgrass (Panicum virgahim L.) (SG),
(§2) The percent control of the weeds compared to untreated checks was determined two weeks after treatment. TABLE 1 summarizes the results achieved with compounds formulated as indicated above, and the data clearly indicate the good to excellent herbicidal efficacy of compositions of this invention.

The test system of experiment [7] is prickly sida (Sida spinosa L.) (PS). Description: Preemergence herbicide test, soil drench, prickly sida. The conditions noted are these: 10 lbs/A (11.2 kg/ha) soil drench, two weeks after treatment, vs untreated checks; for pest or weed control at 11208.5 g/ha: Sida spinosa, 336 h, read-out: Percent Weed Control PS. The procedure:
To illustrate the effectiveness of the previously described substituted oxadiazines of this invention as preemergence herbicides, 300 mg of the chemical was dissolved in a composition comprising 10 mL acetone to which 30 mg of tile emulsifying agent, ethoxylated sorbitan monolaurate, was added. The solution was diluted to 100 mL with distilled water. Ten milliliters of this 3000 ppm solution was diluted to 250 ppm with distilled water. […]
prickly sida (Sida spinosa L.) (PS),
as §2

As to `FC(F)(F)C1=NC(C(F)(F)F)(C(F)(F)F)N=C(c2ccc(Cl)cc2)O1` [Compound 5, 2-(4-chlorophenyl)-4,4,6-tris(trifluoromethyl)-4H-1,3,5-oxadiazine], the pest or weed control at 11208.5 g/ha in experiment [1], in experiment [2], in experiment [3], in experiment [4] and in experiment [6] was 100% each time. Further, the “Percent Weed Control JW” value in experiment [5] worked out at 100%.

As for `FC(F)(F)c1ccc(C2=NC(C(F)(F)F)(C(F)(F)F)N=C(C(F)(F)C(F)(F)F)O2)cc1` [Compound 15], the “Percent Weed Control GF” value in experiment [1] was found to be 100%. For the same compound, the “Percent Weed Control BG” value in experiment [2] is 100%. Moreover, in experiment [7], the “Percent Weed Control PS” value turned out to be 100%. Besides, the “Percent Weed Control TM” value in experiment [3] is given as 100%. Besides, the “Percent Weed Control VL” value in experiment [4] amounted to 100%. Besides, in experiment [6], the “Percent Weed Control SG” value is listed as 100%.

On to `Fc1ccc(C2=NC(C(F)(F)F)(C(F)(F)F)N=C(C(F)(F)C(F)(F)F)O2)cc1` [Compound 17, 2-(4-fluorophenyl)-6-(pentafluoroethyl)-4,4-bis(trifluoromethyl)-4H-1,3,5-oxadiazine], for which the pest or weed control at 11208.5 g/ha amounted to 50% in experiment [1]; 100% in experiment [2]; 100% in experiment [7]; 100% in experiment [3]; 100% in experiment [4]; 50% in experiment [6].

`FC(F)(F)c1cc(C2=NC(C(F)(F)F)(C(F)(F)F)N=C(C(F)(F)C(F)(F)F)O2)cc(C(F)(F)F)c1` [Compound 18, 2-{3,5-bis(trifluoromethyl)phenyl}-6-(pentafluoroethyl)-4,4-bis(trifluoromethyl)-4H-1,3,5-oxadiazine]: the pest or weed control at 11208.5 g/ha in experiment [1], in experiment [2], in experiment [7], in experiment [3], in experiment [4] and in experiment [6] was 100% each time.

For `Fc1cc(F)cc(C2=NC(C(F)(F)F)(C(F)(F)F)N=C(C(F)(F)C(F)(F)F)O2)c1` [Compound 19, 2-(3,5-difluorophenyl)-6-(pentafluoroethyl)-4,4-bis(trifluoromethyl)-4H-1,3,5-oxadiazine], the pest or weed control at 11208.5 g/ha in experiment [1], in experiment [2], in experiment [7], in experiment [3], in experiment [4] and in experiment [6] was 100% throughout.

On to `FC(F)(F)C(F)(F)C(F)(F)C1=NC(C(F)(F)F)(C(F)(F)F)N=C(c2ccc(Br)cc2)O1` [Compound 27, 2-(4-bromophenyl)-6-(heptafluoropropyl)-4,4-bis(trifluoromethyl)-4H-1,3,5-oxadiazine], for which the pest or weed control at 11208.5 g/ha in experiment [1] is 0%; in experiment [2], 0%; in experiment [7], 100%; in experiment [3], 95%; in experiment [4], 100%; in experiment [6], 0%.

In the case of `Fc1ccc(C2=NC(C(F)(F)F)(C(F)(F)F)N=C(C(F)(F)C(F)(F)C(F)(F)F)O2)cc1` [Compound 28, 2-(4-fluorophenyl)-6-(heptafluoropropyl)-4,4-bis(trifluoromethyl)-4H-1,3,5-oxadiazine], the pest or weed control at 11208.5 g/ha in experiment [1] is 0%; in experiment [2], 0%; in experiment [7] it was 100%; in experiment [3] it was 100%; in experiment [4] it was 100%; in experiment [6], 0%.

`FC(F)(F)c1cccc(C2=NC(C(F)(F)F)(C(F)(F)F)N=C(C(F)(F)C(F)(F)C(F)(F)F)O2)c1` [Compound 29, 2-(heptafluoropropyl)-4,4-bis(trifluoromethyl)-6-{(3-trifluoromethyl)phenyl}-4H-1,3,5-oxadiazine]: in experiment [1], the “Percent Weed Control GF” value was determined as 100%. The “Percent Weed Control BG” value in experiment [2] amounted to 100%. In addition, the “Percent Weed Control PS” value in experiment [7] is given as 100%. In experiment [3], the “Percent Weed Control TM” value turned out to be 100%. The “Percent Weed Control VL” value in experiment [4] is 100%. The “Percent Weed Control SG” value in experiment [6] turned out to be 100%.

Regarding `FC(F)(F)c1ccc(C2=NC(C(F)(F)F)(C(F)(F)F)N=C(C(F)(F)C(F)(F)C(F)(F)F)O2)cc1` [Compound 30, 2-(heptafluoropropyl)-4,4-bis(trifluoromethyl)-6-{(4-trifluoromethyl)phenyl}-4H-1,3,5-oxadiazine], the “Percent Weed Control GF” value in experiment [1] was determined as 100%. For the same compound, the “Percent Weed Control BG” value in experiment [2] is reported as 100%. The “Percent Weed Control PS” value in experiment [7] was determined as 100%. In experiment [3], the “Percent Weed Control TM” value came out at 100%. Also, the “Percent Weed Control VL” value in experiment [4] turned out to be 100%. Besides, the “Percent Weed Control SG” value in experiment [6] is on record as 100%.
